Source: patent US9944607B2, “Thiohydantoin derivatives and uses thereof” (Whitehead Institute for Biomedical Research, priority 2012, dated 2018)
In brackets after ≈: the same amount, converted by molar mass. Read-outs that look alike come from different tables or passages of the source.

Key:
[1] = test system: Saccharomyces cerevisiae W303; assay: Secondary S. cerevisiae inhibition in glucose media (OD600); format: cell-based; conditions: for IC50: read-out: Growth Inhibition Activity, IC50 (μM), S. cerevisiae (n = 3) On glucose
From the text: (§1) Cell Lines. • Candida albicans CaCi-2; a drug-resistant clinical isolate was provided by the Whitehead Institute (Redding et al., Clin. Infect. Dis. 1994, 18(2):240-2). This strain was used for the primary assay. • Candida albicans CaCi-17; a strongly drug-resistant clinical isolate was provided by the Whitehead Institute (Redding et al., Clin. Infect. Dis. 1994, 18(2):240-2). This strain was used for the primary assay • Saccharyomyces cerevisiae W303-1a (ATCC 208352); a well-characterized Saccharomyces strain used for determination of glycolytic vs. respiratory metabolism, as well as in the mitochondrial disruption assay. • Candida glabrata (ATCC 2001); used for determination of glycolytic vs. respiratory metabolism. • NIH-3T3 mammalian fibroblasts (ATCC; CRL no.1658); used for mammalian toxicity assays. […]
(§2) Saccharomyces, while not a major human pathogen, is a useful lab model with well-developed genetic tools available. Candida glabrata is an increasingly prominent clinical problem for immune-compromised patients but with fewer genetic tools available with which to study it. These organisms can utilize alternative metabolic pathways to support growth and survival depending on the carbon source. By comparing the concentration-dependent inhibition of yeast growth in glycerol relative to glucose media, a quantitative assessment of a compound's ability to disrupt respiration can be determined. […].
(§3) Procedures • Use a Thermo Combi nL to dispense 20 μL/well of assay media into all wells. • Add 2 μL of Amphotericin B to control wells. • Pin 100 nL of test compound from compound plates into assay plates using a CyBi-Well pin tool. • Dispense 20 μL/well of culture into the assay media in all wells. • Incubate the plates in a humidified (90% humidity) Liconic incubator at 37° C. without agitation for 48 hours. • Shake plates briefly. • Read OD600 of wells on a standard plate reader as measure of relative fungal growth. Envision (Perkin Elmer) plate reader settings: Ex Photometric 600, Top read. Secondary Glucose Assay Protocol (AID 623971, 623967, 624013, 624025) Materials and Reagents
(§4) Clear, flat bottom, black 384-well plates (Corning, Catalog No. 3712BC; Lot No. 35808016); Amphotericin B (Sigma, Catalog no. A2411) 15 mM stock solution in DMSO; Pen/Strep (Gibco, Catalog No. 10378-016; Lot no21040170) 100× in PBS.
(§5) Synthetic defined growth medium. Complete Supplement Mixture; (Sunrise Science, Catalog No. 1001-100); Yeast Nitrogen Base without ammonium sulfate (MP Biomedicals, Catalog No. 4027-012); Glucose (Sigma, Catalog No. G7021). • Prepare medium by dissolving 0.79 g of Complete Supplement Mixture and 1.7 g of Yeast Nitrogen Base in 800 mL of water. • Add 20 g of glucose. Adjust final volume to 1000 mL. Filter sterilize.
(§6) Fungal Inoculum. Test Strains: C. glabrata (ATCC 2001) and Saccharomyces cerevisiae W303. • Inoculate 100 L of yeast from cryopreserved stock into a 250 mL shaker flask containing 20 mL of growth medium. Shake at 30° C. overnight (about 16 hours). • Read OD 600 of 1 mL of fungal culture in a cuvette using a standard optical density reader (Eppendorf BioPhotometer Plus), with growth medium as a background blank. • Dilute to desired volume of fungal inoculum to produce an OD600 reading of 0.005 (S. cerevisiae) or 0.004 (C. glabrata).
as §3, with “read. 4.5.” for “read.”, “Mitochondrial Disruption” for “Glucose”, “Assay” for “Assay Protocol”, “No. 624062” for “623971, 623967, 624013, 624025) Materials”, “624068)” for “Reagents”

C. glabrata (ATCC 2001) [2] = assay: Secondary C. glabrata inhibition in glucose media (OD600); format: cell-based, Candida glabrata; conditions: for IC50: read-out: Growth Inhibition Activity, IC50 (μM), C. glabrata (n = 3) On glucose
From the text: as §1, §2, §3, §4, §5, §6
as §3, with “read. 4.5.” for “read.”, “Mitochondrial Disruption” for “Glucose”, “Assay” for “Assay Protocol”, “No. 624062” for “623971, 623967, 624013, 624025) Materials”, “624068)” for “Reagents”

C. glabrata (ATCC 2001) [3] = assay: Secondary C. glabrata inhibition in glycerol media (OD600); format: cell-based, Candida glabrata; conditions: for IC50: read-out: Growth Inhibition Activity, IC50 (μM), C. glabrata (n = 3) On glycerol
From the text: as §1, §2
(§7) Clear, flat bottom, black 384-well plates (Corning Catalog no. 3712BC; Lot no. 35808016); Amphotericin B (Sigma Catalog no. A2411) 15 mM stock solution in DMSO; Pen/Strep (Gibco Catalog no. 10378-016; Lot no21040170) 100× in PBS.
as §5, with “4027-012); Glycerol (Sigma” for “4027-012); Glucose (Sigma,”, “No. G-9012).” for “No. G7021).”, “g” for “g of”, “mL” for “mL of”, “20 mL” for “20 g”, “of glycerol.” for “of glucose.”
as §6, with “Inoculate 100 μL of yeast” for “Inoculate 100 L of yeast”, “stock into 250 mL” for “stock into a 250 mL”, “20 mL growth medium.” for “20 mL of growth medium.”
as §3

[4] = test system: Saccharomyces cerevisiae W303; assay: Secondary S. cerevisiae inhibition in glycerol media (OD600); format: cell-based; conditions: for IC50: read-out: Growth Inhibition Activity, IC50 (μM), S. cerevisiae (n = 3) On glycerol
From the text: as §1, §2, §7
as §5, with “4027-012); Glycerol (Sigma” for “4027-012); Glucose (Sigma,”, “No. G-9012).” for “No. G7021).”, “g” for “g of”, “mL” for “mL of”, “20 mL” for “20 g”, “of glycerol.” for “of glucose.”
as §6, with “Inoculate 100 μL of yeast” for “Inoculate 100 L of yeast”, “stock into 250 mL” for “stock into a 250 mL”, “20 mL growth medium.” for “20 mL of growth medium.”
as §3

[5] = test system: NIH-3T3 mammalian fibroblasts; assay: Counterscreen mammalian cell toxicity assay (Alamar Blue); format: cell-based, murine; conditions: for Growth Inhibition Activity, IC50 (μM), 3T3 Fibroblasts (n = 1): Table 4, 48 hours, tested up to 26 μM
Experimental: Quiescent murine fibroblasts were subjected to incubation with compounds of interest for 48 hours. Subsequent cell viability was determined via measuring Alamar Blue fluorescence.
Procedures • After overnight culture, pin compounds into wells at 100 nL/well using the CyBio CyBi-Well pinning instrument. • Return the plates to the tissue culture incubator and incubate the culture for an additional 48 hours at 37° C. under 5% CO2. • At the completion of this incubation, add Alamar Blue solution diluted 1:40 in PBS to each well (10 μL/well) to achieve a final dilution of 1:200. • Incubate the plates for an additional 2-3 hours at 37° C. under 5% CO2. • Read the Relative Fluorescence Intensity (RFU) of wells on a standard plate reader as a measure of relative cell growth. […] 4.4.

Candida albicans CaCi-2 = assay: Primary assay: C. albicans CaCi-2 growth inhibition (Alamar Blue); format: cell-based; for Growth Inhibition Activity, IC50 (μM), C. albicans CaCi-2, values marked ‡: less than 0.10 µM in AID 623899
Candida albicans CaCi-17 = assay: Primary assay: C. albicans CaCi-17 growth inhibition (Alamar Blue); format: cell-based; conditions: Candida albicans, read-out: Growth Inhibition Activity, IC50 (μM), C. albicans (n = 3) CaCi-17
[6] = Solubility in PBS pH 7.4 with 1% DMSO; conditions: for solubility at 24 h: phosphate buffered saline with 1% DMSO, pH 7.4, aqueous buffer, kinetic from dmso stock
Experimental: Solubility was determined in phosphate buffered saline (PBS) pH 7.4 with 1% DMSO. Each compound was prepared in duplicate at 100 μM in both 100% DMSO and PBS with 1% DMSO. Compounds were allowed to equilibrate at room temperature with a 250 rpm orbital shake for 24 hours. After equilibration, samples were analyzed by UPLC-MS (Waters, Milford, Mass.) with compounds detected by SIR detection on a single quadrupole mass spectrometer. The DMSO samples were used to create a two-point calibration curve to which the response in PBS was fit.

[7] = Table 8, n = 3, glucose media, 48 hours, tested up to 3 μM
[8] = Table 8, n = 3, glycerol media, 48 hours, tested up to 3 μM
[9] = Saccharomyces cerevisiae, W303, 48 h
[10] = Nakaseomyces glabratus, ATCC2001, 48 h
[11] = Saccharomyces cerevisiae, W303, Table 8, n = 3, glucose media, 48 hours, tested up to 3 μM
[12] = Nakaseomyces glabratus, ATCC2001, Table 8, n = 3, glucose media, 48 hours, tested up to 3 μM
[13] = Nakaseomyces glabratus, ATCC2001, Table 8, n = 3, glycerol media, 48 hours, tested up to 3 μM
[14] = Candida albicans, CACI2; read-out: Growth Inhibition Activity, IC50 (μM), C. albicans CaCi-2, values marked ‡
[15] = Saccharomyces cerevisiae, W303, Table 8, n = 3, glycerol media, 48 hours, tested up to 3 μM
[16] = CACI17, Table 4, n = 3, 48 hours, tested up to 26 μM

| Compound | IC50 [1, 9] [µM] | IC50 (C. glabrata (ATCC 2001) [2]; [10]) [µM] | IC50 (C. glabrata (ATCC 2001) [3]; [10]) [µM] | Growth Inhibition Activity, IC50 (μM), 3T3 Fibroblasts (n = 1) [5] | IC50 [4, 9] [µM] | IC50 (Candida albicans CaCi-17; CACI17, 48 h) [µM] | solubility at 24 h [6] [µM] | IC50 [1, 11] [µM] | IC50 (C. glabrata (ATCC 2001) [2]; [12]) [µM] | IC50 (C. glabrata (ATCC 2001) [3]; [13]) [µM] | IC50 (Candida albicans CaCi-2; [14]) [µM] | IC50 [4, 15] [µM] | IC50 (Candida albicans CaCi-17; [16]) [µM] | further results |
| --- | --- | --- | --- | --- | --- | --- | --- | --- | --- | --- | --- | --- | --- | --- |
| C[C@@H]1[C@H](O)[C@@H](C)/C=C/C=C/C=C/C=C/C=C/C=C/C=C/[C@H](O[C@@H]2O[C@H](C)[C@@H](O)[C@H](N)[C@@H]2O)C[C@@H]2O[C@](O)(C[C@@H](O)C[C@@H](O)[C@H](O)CC[C@@H](O)C[C@@H](O)CC(=O)O[C@H]1C)C[C@H](O)[C@H]2C(=O)O [Amphotericin B, reference compound] | – | – | – | – | – | – | – | – | – | – | – | – | – | IC50 [1, 7]: 0.38 µM; Growth inhibition of S. cerevisiae on glucose IC50 ([1]; figure legends and Tables 9, 10, 13, AID 623971): significantly inhibited; IC50 (C. glabrata (ATCC 2001) [2]; [7]): 1.2 µM; Growth inhibition of C. glabrata on glucose IC50 (C. glabrata (ATCC 2001) [2]; figure legends and Tables 9, 10, 13, AID 623967): significantly inhibited; IC50 (C. glabrata (ATCC 2001) [3]; [8]): 0.62 µM; Growth inhibition of C. glabrata on glycerol IC50 (C. glabrata (ATCC 2001) [3]; figure legends and Tables 9, 10, 13, AID 623965): significantly inhibited; IC50 [4, 8]: 0.26 µM; Growth inhibition of S. cerevisiae on glycerol IC50 ([4]; figure legends and Tables 9, 10, 13, AID 623969): significantly inhibited |
| CCOC(=O)N1C(=O)C2(CCCCC2)N(c2ccccc2)C1=S [compound 56604821] | > 3 | > 3 | 0.026 | Inactive | 0.015 | 4.2 | 1.6 (≈ 0.532 µg/mL) | – | – | – | – | – | – | IC50 (Candida albicans CaCi-2; Candida albicans, CACI2, 48 h, read-out: Growth Inhibition Activity, IC50 (μM), C. albicans (n = 3) CaCi-2): 0.2 µM |
| CCOC(=O)N1C(=O)C2(CCCCC2)N(c2ccc(C#N)cc2)C1=S [compound 56604847] | – | – | – | Inactive | – | – | < 1 | > 3 | > 3 | 0.033 | 0.08 | 0.004 | 1.8 | – |
| CCOC(=O)N1C(=O)C2(CCCCC2)N(c2ccc(F)cc2)C1=S [compound 56604860] | – | – | – | Inactive | – | – | – | > 3 | > 3 | 0.011 | 0.04 | 0.004 | 1 | PBS Solubility ([6]; Table 4, PBS pH 7.4 with 1% DMSO, 24 hours, room temperature): 1.1 µM |
| CCOC(=O)N1C(=O)C2(CCCCC2)N(c2ccc(Cl)cc2)C1=S [compound 56604865] | > 3 | > 3 | 0.022 | – | 0.006 | 1.4 | < 1 | – | – | – | – | – | – | IC50 ([5]; Mus musculus, NIH3T3, 48 h, read-out: Growth Inhibition Activity, IC50 (μM), 3T3 Fibroblasts (n = 1)): 22.3 µM; IC50 (Candida albicans CaCi-2; Candida albicans, CACI2, read-out: Growth Inhibition Activity, IC50 (μM), C. albicans CaCi-2, values marked ‡): 0.06 µM |
